From patent publication US20060116368A1, “4-Piperidinecarboxamide modulators of vanilloid VR1 receptor” (priority 2004, published 2006)

Experiments:
[1] = biological target: T1, Human Vanilloid Receptor 1 (Homo sapiens, UniProt Q8NER1); assay: Human VR1 functional assay using FLIPR, Protocol 1; type: cell-based; details: for inhibition at 9 µM: HEK293, 9 uM, HEK 293 cells transfected with hVR1, read-out: h % I (9 uM); for IC50: decreased capsaicin (EC80)-induced calcium response, HEK 293 hVR1, read-out: h IC50
T1 construct: expressed in transfected cells; host or cells: HEK 293
Procedure: The functional activity of the test compounds was determined by measuring changes in intracellular calcium concentration using FLIPR™ Calcium-3 Assay Kit and FLIPR™ technology.
HEK 293 cells transfected with Human Vanilloid Receptor 1 were maintained at 37° C. and 5% CO2 in: Dulbecco's Modification of Eagle's Medium (high glucose, L-glutamine, pyridoxine HCl, No sodium pyruvate), 10% FBS, 1× Penicillin-Streptomycin-Amphotericin B, 200 ug/mL zeocin. Approximately 24 hours prior to assay, 30,000 cells/well were plated onto a 384-well black clear bottom poly-D-lysine-coated assay plate with a well volume of 25 µL using Titertek Multidrop.
On the day of the assay, the medium was dumped and 50 μL 1× dye were loaded using Multidrop. Plates were incubated with dye at 37° C. for 30 minutes followed by 30 minutes incubation at room temperature. Then the plates were assayed by FLIPR™ with 2 additions: 12.5 μL test compound with 5 minutes data acquisition followed by 12.5 μL capsaicin at the EC80 concentration.
The EC50 values of test compounds were calculated based on a test compound-induced calcium response at the 5-minute time point. The IC50 values of compounds were calculated based on a decreased capsaicin-induced calcium response in the presence of test compound.

hVR1 receptors = biological target: T2, hVR1 receptors (Homo sapiens, UniProt Q8NER1); assay: Human VR1 binding assay ([3H]RTX); details: membranes of HEK293 cells transfected with human VR1; for h Binding % I (1 uM): inhibition of [3H]RTX binding; for Ki: [3H]RTX binding
T2 construct: expressed in transfected cells; host or cells: HEK293
Procedure: Compounds of the present invention were tested for their ability to inhibit the binding of [^3H] RTX to hVR1 receptors in a [^3H] RTX binding assay as previously described (Zhang, Sui-Po. Improved ligand binding assays for vanilloid receptors. PCT Int. Appl. (2002), WO 0233411 A1 20020425 AN 2002:315209, and Grant, Elfrida R., Dubin, Adrienne E., Zhang, Sui-Po, Zivin, Robert A., Zhong, Zhong Simultaneous intracellular calcium and sodium flux imaging in human vanilloid receptor 1 (VR1)-transfected human embryonic kidney cells: a method to resolve ionic dependence of VR1-mediated cell death. J. Pharmacol. Exp. Ther., 2002, 300(1), 9-17.)
HEK293 cells were transfected with human VR1 vanilloid receptors and washed with Hank's balanced Salt Solution, dissociated with cell dissociation buffer (Sigma), and then centrifuged at 1000×g for 5 min. Cell pellets were homogenized in cold 20 mM HEPES buffer, pH 7.4, containing 5.8 mM NaCl, 320 mM sucrose, 2 mM MgCl2, 0.75 CaCl2 and 5 mM KCl and centrifuged at 1000×g for 15 min. The resultant supernate was then centrifuged at 40000×g for 15 min. The pelleted membranes were stored in a freezer at −80° C.
Approximately 120 μg protein/ml from membranes were incubated with indicated concentrations of [^3H]RTX in 0.5 ml of the HEPES buffer (pH 7.4) containing 0.25 mg/mL fatty acid-free bovine serum albumin at 37° C. for 60 min. The reaction mixture was then cooled to 4° C., added 0.1 mg α1-acid glycoprotein to each sample and incubated at 4° C. for 15 min. The samples were centrifuged at 18500×g for 15 min. The tip of the microcentrifuge tube containing the pellet was cut off. Bound radioactivity was quantified by scintillation counting. Non-specific binding was tested in the presence of 200 nM unlabeled RTX.
Data were calculated according to the equation: % inhibition=(total binding−binding)*100/(total binding−non specific binding). Ki values were calculated using a Prism program.

[2] = inhibition of capsaicin (EC80)-induced calcium response

T2 sequence (Q8NER1 whole entry): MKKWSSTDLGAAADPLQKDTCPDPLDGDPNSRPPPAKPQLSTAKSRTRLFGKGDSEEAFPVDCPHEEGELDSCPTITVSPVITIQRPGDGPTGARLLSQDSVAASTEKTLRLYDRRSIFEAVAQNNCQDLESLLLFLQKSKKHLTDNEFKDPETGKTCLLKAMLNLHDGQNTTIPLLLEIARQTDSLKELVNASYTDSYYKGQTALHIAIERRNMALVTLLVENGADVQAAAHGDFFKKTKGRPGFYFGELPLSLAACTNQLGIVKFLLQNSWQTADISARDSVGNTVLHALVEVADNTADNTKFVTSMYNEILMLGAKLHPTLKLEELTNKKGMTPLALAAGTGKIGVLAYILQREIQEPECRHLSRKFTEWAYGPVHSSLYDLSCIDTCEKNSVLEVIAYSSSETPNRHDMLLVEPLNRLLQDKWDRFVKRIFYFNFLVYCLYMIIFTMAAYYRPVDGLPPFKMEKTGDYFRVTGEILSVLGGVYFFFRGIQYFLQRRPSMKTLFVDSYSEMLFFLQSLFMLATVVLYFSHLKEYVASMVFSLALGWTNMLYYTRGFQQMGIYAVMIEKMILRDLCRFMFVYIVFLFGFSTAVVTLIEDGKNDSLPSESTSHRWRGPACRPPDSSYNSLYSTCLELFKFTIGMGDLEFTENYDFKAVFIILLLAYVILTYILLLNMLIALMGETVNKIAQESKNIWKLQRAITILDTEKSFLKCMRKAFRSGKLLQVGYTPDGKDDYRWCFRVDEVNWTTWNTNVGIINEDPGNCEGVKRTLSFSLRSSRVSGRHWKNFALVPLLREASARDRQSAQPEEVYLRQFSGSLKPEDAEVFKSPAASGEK
T1 sequence (Q8NER1 whole entry): as above

In the case of `Cc1ccc(N2CCC(C(=O)Nc3cnc4ccccc4c3)CC2)cc1C` [Example 6, 1-(3,4-Dimethyl-phenyl)-piperidine-4-carboxylic acid quinolin-3-ylamide], the inhibition at 9 µM [1, 2] is reported as 92.2%, the IC50 [1] is reported as 0.35 µM and the “h Binding % I (1 uM)” value (hVR1 receptors) is reported as 66.5%. For the same molecule, the Ki (hVR1 receptors) was 0.215 µM.

In the case of `O=C(Nc1cccc2[nH]ccc12)C1CCN(c2cccc(C(F)(F)F)c2)CC1` [Example 8, 1-(3-Trifluoromethyl-phenyl)-piperidine-4-carboxylic acid (1H-indol-4-yl)-amide], the inhibition at 9 µM [1, 2] is reported as 101%, the IC50 [1] is reported as 0.23 µM and the “h Binding % I (1 uM)” value (hVR1 receptors) is reported as 87.0%. For the same molecule, the Ki (hVR1 receptors) was 0.134 µM.

In the case of `CC(=O)N1CCc2cccc(NC(=O)C3CCN(c4cccc(C(F)(F)F)c4)CC3)c21` [Example 9, 1-(3-Trifluoromethyl-phenyl)-piperidine-4-carboxylic acid (1-acetyl-2,3-dihydro-1H-indol-7-yl)-amide], the inhibition at 9 µM [1, 2] is reported as 48.5%, the IC50 [1] is reported as 5.61 µM and the “h Binding % I (1 uM)” value (hVR1 receptors) is reported as 4.8%.

With `O=C(Nc1ccc2ncsc2c1)C1CCN(c2cccc(C(F)(F)F)c2)CC1` [Example 13, 1-(3-Trifluoromethyl-phenyl)-piperidine-4-carboxylic acid benzothiazol-6-ylamide] the inhibition at 9 µM [1, 2] was 88%, the IC50 [1] was 0.48 µM and the “h Binding % I (1 uM)” value (hVR1 receptors) was 47.7%.

In the case of `CC(=O)N1CCc2ccc(NC(=O)C3CCN(c4cccc(C(F)(F)F)c4)CC3)cc21` [Example 16, 1-(3-Trifluoromethyl-phenyl)-piperidine-4-carboxylic acid (1-acetyl-2,3-dihydro-1H-indol-6-yl)-amide], the inhibition at 9 µM [1, 2] is reported as 83%, the IC50 [1] is reported as 0.8 µM and the “h Binding % I (1 uM)” value (hVR1 receptors) is reported as 15.0%.

`O=C(Nc1cccc2[nH]ccc12)C1CCN(c2cccc(C(F)(F)F)c2)CC1` [Example 21, 1-(3-Trifluoromethyl-phenyl)-piperidine-4-carboxylic acid (1H-indol-4-yl)-amide] was tested, and the “h % I (9 uM)” value ([1]; 9 uM, inhibition of capsaicin (EC80)-induced calcium response, HEK 293 cells transfected with hVR1) was 102.0%, the IC50 [1] was 0.16 µM and the “h Binding % I (1 uM)” value (hVR1 receptors) was 86.9%. It also gave a Ki (hVR1 receptors) of 0.134 µM.

For `CC(=O)c1cc2c(cc1NC(=O)C1CCN(c3cccc(C(F)(F)F)c3)CC1)OCO2` [Example 33, 1-(3-Trifluoromethyl-phenyl)-piperidine-4-carboxylic acid (6-acetyl-benzo[1,3]dioxol-5-yl)-amide], the inhibition at 9 µM [1, 2] was 12.6% and the “h Binding % I (1 uM)” value (hVR1 receptors) was 12.8%.

In the case of `O=C1COc2ccc(NC(=O)C3CCN(c4cccc(C(F)(F)F)c4)CC3)cc2N1` [Example 34, 1-(3-Trifluoromethyl-phenyl)-piperidine-4-carboxylic acid (3-oxo-3,4-dihydro-2H-benzo[1,4]oxazin-6-yl)-amide], the inhibition at 9 µM [1, 2] is reported as 94.5%, the IC50 [1] is reported as 0.21 µM and the Ki (hVR1 receptors) is reported as 0.065 µM.

In the case of `O=C(Nc1cnc2ccccc2c1)C1CCN(c2ccccc2Br)CC1` [Example 53, 1-(2-Bromo-phenyl)-piperidine-4-carboxylic acid quinolin-3-ylamide], the inhibition at 9 µM [1, 2] is reported as 104%, the IC50 [1] is reported as 0.16 µM and the “h Binding % I (1 uM)” value (hVR1 receptors) is reported as 47.3%.

In the case of `Cc1cccc(N2CCC(C(=O)Nc3ccc4c(c3)NC(=O)CO4)CC2)c1` [Example 140, 1-m-Tolyl-piperidine-4-carboxylic acid (3-oxo-3,4-dihydro-2H-benzo[1,4]oxazin-6-yl)-amide], the inhibition at 9 µM [1, 2] is reported as 84%, the IC50 [1] is reported as 0.49 µM and the Ki (hVR1 receptors) is reported as 0.225 µM.

`Cc1ccccc1N1CCC(C(=O)Nc2ccc3c(c2)NC(=O)CO3)CC1` [Example 141, 1-o-Tolyl-piperidine-4-carboxylic acid (3-oxo-3,4-dihydro-2H-benzo[1,4]oxazin-6-yl)-amide] was tested, and the inhibition at 9 µM [1, 2] was 100%, the IC50 [1] was 0.15 µM and the Ki (hVR1 receptors) was 0.061 µM.

Work on `Cc1c(Cl)cccc1N1CCC(C(=O)Nc2ccc3c(c2)NC(=O)CO3)CC1` [Example 157, 1-(3-Chloro-2-methyl-phenyl)-piperidine-4-carboxylic acid (3-oxo-3,4-dihydro-2H-benzo[1,4]oxazin-6-yl)-amide] yielded an inhibition at 9 µM [1, 2] of 90.3% and an IC50 [1] of 0.1 µM.

`Cc1cccnc1N1CCC(C(=O)Nc2ccc3c(c2)NC(=O)CO3)CC1` [Example 158, 3′-Methyl-3,4,5,6-tetrahydro-2H-[1,2′]bipyridinyl-4-carboxylic acid (3-oxo-3,4-dihydro-2H-benzo[1,4]oxazin-6-yl)-amide] was tested, and the inhibition at 9 µM [1, 2] was 39%.

Molecule `O=C1COc2ccc(NC(=O)C3CCN(c4nc5ccccc5s4)CC3)cc2N1` [Example 159, 1-Benzothiazol-2-yl-piperidine-4-carboxylic acid (3-oxo-3,4-dihydro-2H-benzo[1,4]oxazin-6-yl)-amide] has an inhibition at 9 µM [1, 2] of 20.7%.

For `O=C1COc2ccc(NC(=O)C3CCN(c4cccc(F)c4Br)CC3)cc2N1` [Example 160, 1-(2-Bromo-3-fluoro-phenyl)-piperidine-4-carboxylic acid (3-oxo-3,4-dihydro-2H-benzo[1,4]oxazin-6-yl)-amide], the inhibition at 9 µM [1, 2] was 93% and the IC50 [1] was 0.13 µM.

In the case of `O=C1COc2ccc(NC(=O)C3CCN(c4ncccc4[N+](=O)[O-])CC3)cc2N1` [Example 161, 3′-Nitro-3,4,5,6-tetrahydro-2H-[1,2′]bipyridinyl-4-carboxylic acid (3-oxo-3,4-dihydro-2H-benzo[1,4]oxazin-6-yl)-amide], the inhibition at 9 µM [1, 2] is reported as 28.7%.

`N#Cc1c(N2CCC(C(=O)Nc3ccc4c(c3)NC(=O)CO4)CC2)cccc1C(F)(F)F` [Example 162, 1-(2-Cyano-3-trifluoromethyl-phenyl)-piperidine-4-carboxylic acid (3-oxo-3,4-dihydro-2H-benzo[1,4]oxazin-6-yl)-amide] gave an inhibition at 9 µM [1, 2] of 37%.

In the case of `N#Cc1ccc(C(F)(F)F)cc1N1CCC(C(=O)Nc2ccc3c(c2)NC(=O)CO3)CC1` [Example 163, 1-(2-Cyano-5-trifluoromethyl-phenyl)-piperidine-4-carboxylic acid (3-oxo-3,4-dihydro-2H-benzo[1,4]oxazin-6-yl)-amide], the inhibition at 9 µM [1, 2] is reported as 19.7%.

With `O=C1COc2ccc(NC(=O)C3CCN(c4c(F)c(F)c(Br)c(F)c4F)CC3)cc2N1` [Example 164, 1-(4-Bromo-2,3,5,6-tetrafluoro-phenyl)-piperidine-4-carboxylic acid (3-oxo-3,4-dihydro-2H-benzo[1,4]oxazin-6-yl)-amide] the inhibition at 9 µM [1, 2] was 87% and the IC50 [1] was 0.11 µM.

Work on `O=C1COc2ccc(NC(=O)C3CCN(c4ccccc4C(F)(F)F)CC3)cc2N1` [Example 165, 1-(2-Trifluoromethyl-phenyl)-piperidine-4-carboxylic acid (3-oxo-3,4-dihydro-2H-benzo[1,4]oxazin-6-yl)-amide] yielded an inhibition at 9 µM [1, 2] of 94.8% and an IC50 [1] of 0.38 µM.

For `O=C1COc2ccc(NC(=O)C3CCN(c4cc(C(F)(F)F)ccc4C(F)(F)F)CC3)cc2N1` [Example 166, 1-(2,5-Bis-trifluoromethyl-phenyl)-piperidine-4-carboxylic acid (3-oxo-3,4-dihydro-2H-benzo[1,4]oxazin-6-yl)-amide], the inhibition at 9 µM [1, 2] was 100% and the IC50 [1] was 0.29 µM.

For `O=C1COc2ncc(NC(=O)C3CCN(c4cccc(C(F)(F)F)c4)CC3)cc2N1` [Example 167, 1-(3-Trifluoromethyl-phenyl)-piperidine-4-carboxylic acid (2-oxo-2,3-dihydro-1H-pyrido[2,3-b][1,4]oxazin-7-yl)-amide], the inhibition at 9 µM [1, 2] was 45.7%.

For `O=C(Nc1ccc2c(c1)N(CCO)C(=O)CO2)C1CCN(c2cccc(C(F)(F)F)c2)CC1` [Example 168, 1-(3-Trifluoromethyl-phenyl)-piperidine-4-carboxylic acid [4-(2-hydroxy-ethyl)-3-oxo-3,4-dihydro-2H-benzo[1,4]oxazin-6-yl]-amide], the inhibition at 9 µM [1, 2] was 59.6%.
